Holding throughout (assay type): cell-based
Experiment [1] deals with 5'-AMP-activated protein kinase catalytic subunit alpha-2 (Rattus norvegicus) (UniProt Q09137). The experiment is described as follows: Activation of AMPK in rat IAR-20 cells assessed as phosphorylated acetyl CoA carboxylase level at 10 uM after 30 mins by Western blot analysis.
Experiment [2] has the same target. The experiment can be described thus: Activation of AMPK in rat IAR-20 cells assessed as phosphorylated protein level at 10 uM after 30 mins by Western blot analysis.
For experiment [3] the target is unchanged. The experiment is described as follows: Inhibition of AMPK in rat IAR-20 cells assessed as phosphorylated acetyl CoA carboxylase level at 10 uM after 30 mins by Western blot analysis.
Experiment [4] shares this target. The experiment is described as follows: Inhibition of AMPK in rat IAR-20 cells assessed as phosphorylated protein level at 10 uM after 30 mins by Western blot analysis.

Active and inactive are the calls of the source. The rule behind the calls is not given here.

5'-AMP-activated protein kinase catalytic subunit alpha-2 (Rattus norvegicus), sequence (Q09137 whole entry): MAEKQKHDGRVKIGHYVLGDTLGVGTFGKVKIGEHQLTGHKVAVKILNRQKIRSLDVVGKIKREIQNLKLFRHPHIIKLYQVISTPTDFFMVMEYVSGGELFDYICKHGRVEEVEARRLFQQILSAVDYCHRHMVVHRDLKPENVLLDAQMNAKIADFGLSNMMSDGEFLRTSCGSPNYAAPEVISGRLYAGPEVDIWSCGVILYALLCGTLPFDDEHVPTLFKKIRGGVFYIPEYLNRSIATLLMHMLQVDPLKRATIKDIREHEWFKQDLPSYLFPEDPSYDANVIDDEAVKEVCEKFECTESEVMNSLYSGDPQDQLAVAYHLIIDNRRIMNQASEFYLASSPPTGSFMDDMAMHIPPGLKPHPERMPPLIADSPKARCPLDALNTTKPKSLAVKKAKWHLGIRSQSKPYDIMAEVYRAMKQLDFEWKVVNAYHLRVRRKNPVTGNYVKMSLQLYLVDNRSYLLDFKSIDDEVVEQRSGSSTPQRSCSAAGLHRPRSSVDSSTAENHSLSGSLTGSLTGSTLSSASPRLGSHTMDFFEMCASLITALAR

For `Cc1c(O)c(C)c2c(c1O)C(=O)[C@H](Cc1ccc(O)cc1)CO2`, the result in experiment [1] and in experiment [2] was Active.

In the case of `COc1ccc(CC2COc3c(OC)c(O)cc(O)c3C2=O)c(O)c1` (centres undefined), the inhibition result in experiment [3] and in experiment [4] was “Active” in each case.

For `Cc1c(O)cc2c(c1O)C(=O)[C@H](Cc1ccc(O)cc1)CO2`, the outcome in experiment [1] and in experiment [2] was Active.

Consider `COc1cc(O)c(C)c(O)c1C(=O)CCc1ccc(O)cc1`, for which the outcome in experiment [1] and in experiment [2] was Active.

Consider `COc1c(O)c(C)c(O)c2c1OC[C@@H](Cc1ccc(O)cc1)C2=O`, for which the outcome in experiment [1] and in experiment [2] was Active.

On to `Cc1c(O)c(C)c2c(c1O)C(=O)[C@](O)(Cc1ccc(O)cc1)CO2`, for which the inhibition result in experiment [3] and in experiment [4] was “Active” in each case.

Take `COc1c(O)c(C)c(O)c2c1OC[C@@](O)(Cc1ccc(O)cc1)C2=O`: the inhibition result in experiment [3] and in experiment [4] was “Active” in each case.
